# Measured values reported in patent publication US8785483B2, “Methods for treating COPD” (The Board of Regents of the University of Texas System, priority 2010, dated 2014).
# Tested on: ERK1/2
# Test: Western blot of ERK1/2 phosphorylation in airway epithelial monolayer
# Type: cell-based, human
# Conditions: ALI monolayer, AR inhibitor 24 h prior to IL-13
# Procedure: FIG. 7. AR inhibition prevents IL-13-induced phosphorylation of JAK-1, ERK1/2 and STAT-6 in airway epithelial monolayer. The ciliated monolayer of airway cells at ALI was treated with AR inhibitor for 24 h and stimulated with IL-13 for different time periods as indicated. At the end of incubation, cells were lysed and cell lysate was subjected to western blotting using antibodies against phosphorylated and nonphosphorylated JAK-1, ERK1/2 and STAT-6 to analyze the activation of these signaling proteins. A representative blot is shown (n=4). #p<0.001 vs Control; *p<0.01 and **p<0.001 vs IL-13. For air-liquid interface (ALI) culture, SAEC were seeded at 8.5×10^4 cells/12-mm-diameter PET transparent insert with […] pores (12-well millicell culture insert; Millipore) and pre-coated with rat tail collagen type-1 (Sigma-Aldrich). The cells were grown submerged in the differentiation medium as described earlier by Zhen et al. (Am J Respir Cell Mol Biol 36: 244-253, 2007). […] Protein levels were determined using Bradford reagent (Biorad, Hercules, Calif.). […] The blots were then washed, exposed to HRP-conjugated secondary antibodies (1:5,000 dilution) for 1 h, and the antigen-antibody complex was detected by enhanced chemiluminescence (Amersham Pharmacia Biotech, Piscataway, N.J., USA). […]
smiles,measurement,value
"NC(=O)[C@@H]1C[C@]2(NC(=O)NC2=O)c2cc(F)ccc2O1 [fidarestat, (2S,4S)-2-aminoformyl-6-fluoro-spiro[chroman-4,4′-imidazolidine]-2′,5′-dione]",IL-13-induced phosphorylation of ERK1/2,decreased significantly
